From US7696207B2, “Therapeutic agents useful for treating pain” (Purdue Pharma L.P., priority 2002, dated 2010)

How the values were obtained:
human VR1 [1] = target: T1, human VR1 (Homo sapiens, UniProt Q8NER1); experiment: VR1 pH-based assay (FLIPR calcium influx); type: cell-based; settings: HEK293-EcR cells induced to express human VR1; activation by agonist buffer pH 5.5; Fluo-4, FLIPR
T1 construct: expressed in transfected cells
Method: (§1) Human VR1 cloning. Human spinal cord RNA (commercially available from Clontech, Palo Alto, Calif.) was used. Reverse transcription was conducted on 1.0 μg total RNA using Thermoscript Reverse Transcriptase (commercially available from Invitrogen, Carlsbad, Calif.) and oligo dT primers as detailed in its product description. Reverse transcription reactions were incubated at 55° C. for 1 h, heat-inactivated at 85° C. for 5 min, and RNase H-treated at 37° C. for 20 min.
(§2) Human VR1 cDNA sequence was obtained by comparison of the human genomic sequence, prior to annotation, to the published rat sequence. Intron sequences were removed and flanking exonic sequences were joined to generate the hypothetical human cDNA. Primers flanking the coding region of human VR1 were designed as follows: forward primer, […] (SEO ID NO: 1); and reverse primer, […] (SEO ID NO: 2). […]
(§3) Generation of inducible cell lines. […] On the day of assay, cells were loaded with Fluo-4 (a calcium-sensitive dye that is commercially available from Molecular Probes, Eugene, Oreg.) and CAP-mediated calcium influx was measured using a Fluorometric Imaging Plate Reader (“FLIPR”) (commercially available from Molecular Devices Corp., Sunnyvale, Calif.) as described below. […]

human VR1 [2] = target: T1, human VR1; experiment: VR1 capsaicin-based assay (FLIPR calcium influx); type: cell-based; settings: HEK293-EcR cells induced to express human VR1; activation by capsaicin (400 nM); Fluo-4, FLIPR
Method: as §1, §2, §3

T1 sequence (Q8NER1 whole entry): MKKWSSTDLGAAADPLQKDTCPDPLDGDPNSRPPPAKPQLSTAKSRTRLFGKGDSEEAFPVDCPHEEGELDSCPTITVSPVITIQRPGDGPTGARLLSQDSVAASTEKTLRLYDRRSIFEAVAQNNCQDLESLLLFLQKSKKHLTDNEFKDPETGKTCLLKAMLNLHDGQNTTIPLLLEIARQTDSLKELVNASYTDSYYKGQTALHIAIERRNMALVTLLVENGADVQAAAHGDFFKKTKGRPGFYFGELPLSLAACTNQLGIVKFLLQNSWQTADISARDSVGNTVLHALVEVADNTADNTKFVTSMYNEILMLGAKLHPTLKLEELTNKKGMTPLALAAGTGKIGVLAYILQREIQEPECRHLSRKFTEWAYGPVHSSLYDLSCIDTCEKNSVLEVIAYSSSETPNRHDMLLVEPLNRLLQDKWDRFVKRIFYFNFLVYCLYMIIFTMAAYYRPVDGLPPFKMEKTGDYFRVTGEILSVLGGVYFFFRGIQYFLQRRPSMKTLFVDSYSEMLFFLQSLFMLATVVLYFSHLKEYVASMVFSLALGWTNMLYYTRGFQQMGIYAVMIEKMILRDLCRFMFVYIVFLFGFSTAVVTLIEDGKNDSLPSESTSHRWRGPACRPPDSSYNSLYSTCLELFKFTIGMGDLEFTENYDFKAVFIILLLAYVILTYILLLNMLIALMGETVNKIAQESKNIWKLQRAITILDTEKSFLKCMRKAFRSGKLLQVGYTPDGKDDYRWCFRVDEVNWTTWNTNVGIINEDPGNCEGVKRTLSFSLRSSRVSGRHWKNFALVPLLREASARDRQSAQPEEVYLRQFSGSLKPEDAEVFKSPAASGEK

- IC50 (human VR1 [1]): 221 ± 50.5 nM
- IC50 (human VR1 [2]): 47.2 ± 9.9 nM
SMILES: Cc1ccnnc1N1CCN(C(=O)Nc2ccc(C(C)(C)C)cc2)CC1 [Compound A17, 4-(4-Methyl-pyridazin-3-yl)-piperazine-1-carboxylic acid (4-tert-butyl-phenyl)-amide]
